Experimental data: ChEMBL document CHEMBL3132769, “Fragment growing to retain or alter the selectivity of anchored kinase hinge-binding fragments” (Medchemcomm, 2014)

Assays:
[1] = target: T1, Mitogen-activated protein kinase 12 (Homo sapiens) (UniProt P53778); assay: Inhibition of human full length p38 gamma expressed in Escherichia coli cell assessed as substrate phosphorylation using fluorescence-labelled peptides as substrate at 0.2 uM after 90 mins by microfluidic peptide phosphorylation assay
T1 sequence (whole entry): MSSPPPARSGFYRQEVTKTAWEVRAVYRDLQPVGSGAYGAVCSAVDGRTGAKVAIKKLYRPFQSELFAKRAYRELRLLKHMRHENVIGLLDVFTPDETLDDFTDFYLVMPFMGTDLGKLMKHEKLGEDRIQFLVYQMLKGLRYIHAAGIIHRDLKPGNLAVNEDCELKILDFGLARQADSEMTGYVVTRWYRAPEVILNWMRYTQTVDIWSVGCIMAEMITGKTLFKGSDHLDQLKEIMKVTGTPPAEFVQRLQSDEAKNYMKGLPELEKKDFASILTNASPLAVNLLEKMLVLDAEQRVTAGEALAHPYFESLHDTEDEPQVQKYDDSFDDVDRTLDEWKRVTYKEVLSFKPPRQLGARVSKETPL

[2] = target: T2, Inhibitor of nuclear factor kappa-B kinase subunit beta (Homo sapiens) (UniProt O14920); assay: Inhibition of human full length IKK beta expressed in baculovirus assessed as substrate phosphorylation using fluorescence-labelled peptides as substrate at 420 uM after 90 mins by microfluidic peptide phosphorylation assay
T2 sequence (whole entry): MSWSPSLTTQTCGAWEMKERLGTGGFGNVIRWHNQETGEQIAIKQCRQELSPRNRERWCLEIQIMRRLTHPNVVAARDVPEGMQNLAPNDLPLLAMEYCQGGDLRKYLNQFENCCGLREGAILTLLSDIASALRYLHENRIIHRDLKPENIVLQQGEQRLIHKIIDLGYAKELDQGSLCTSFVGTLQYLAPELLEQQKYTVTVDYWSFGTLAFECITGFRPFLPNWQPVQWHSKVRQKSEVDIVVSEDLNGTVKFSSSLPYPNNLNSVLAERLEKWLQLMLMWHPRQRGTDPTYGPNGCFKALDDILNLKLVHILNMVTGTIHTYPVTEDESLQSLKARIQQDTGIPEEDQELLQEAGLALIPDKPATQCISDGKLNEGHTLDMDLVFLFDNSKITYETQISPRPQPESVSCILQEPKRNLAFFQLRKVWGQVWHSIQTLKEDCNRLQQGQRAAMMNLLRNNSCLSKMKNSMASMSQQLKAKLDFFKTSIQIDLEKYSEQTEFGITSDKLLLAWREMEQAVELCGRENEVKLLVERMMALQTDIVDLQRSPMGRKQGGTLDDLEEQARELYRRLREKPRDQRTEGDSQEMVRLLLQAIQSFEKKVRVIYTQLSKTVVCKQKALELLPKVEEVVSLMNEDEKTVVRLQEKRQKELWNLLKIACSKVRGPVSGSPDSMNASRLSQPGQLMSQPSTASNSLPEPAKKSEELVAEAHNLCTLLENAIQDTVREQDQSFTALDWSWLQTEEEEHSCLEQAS

[3] = target: Protein kinase C theta type (Homo sapiens) (UniProt Q04759); assay: Inhibition of human truncated PKC theta expressed in baculovirus assessed as substrate phosphorylation using fluorescence-labelled peptides as substrate at 2 uM after 90 mins by microfluidic peptide phosphorylation assay
[4] = target: Proto-oncogene tyrosine-protein kinase Src (Homo sapiens) (UniProt P12931); assay: Inhibition of human full length SRC expressed in baculovirus assessed as substrate phosphorylation using fluorescence-labelled peptides as substrate at 0.06 uM after 90 mins by microfluidic peptide phosphorylation assay
[5] = target: Aurora kinase B (Homo sapiens) (UniProt Q96GD4); assay: Inhibition of human full length AurB expressed in baculovirus assessed as substrate phosphorylation using fluorescence-labelled peptides as substrate at 0.06 uM after 90 mins by microfluidic peptide phosphorylation assay
[6] = target: Fibroblast growth factor receptor 2 (Homo sapiens) (UniProt P21802); assay: Inhibition of human FGFR2 catalytic domain expressed in baculovirus assessed as substrate phosphorylation using fluorescence-labelled peptides as substrate at 8 uM after 90 mins by microfluidic peptide phosphorylation assay
[7] = target: T3, cGMP-dependent protein kinase 1 (Homo sapiens) (UniProt Q13976); assay: Inhibition of human full length PKG-1a expressed in baculovirus assessed as substrate phosphorylation using fluorescence-labelled peptides as substrate at 1000 uM after 90 mins by microfluidic peptide phosphorylation assay
T3 sequence (whole entry): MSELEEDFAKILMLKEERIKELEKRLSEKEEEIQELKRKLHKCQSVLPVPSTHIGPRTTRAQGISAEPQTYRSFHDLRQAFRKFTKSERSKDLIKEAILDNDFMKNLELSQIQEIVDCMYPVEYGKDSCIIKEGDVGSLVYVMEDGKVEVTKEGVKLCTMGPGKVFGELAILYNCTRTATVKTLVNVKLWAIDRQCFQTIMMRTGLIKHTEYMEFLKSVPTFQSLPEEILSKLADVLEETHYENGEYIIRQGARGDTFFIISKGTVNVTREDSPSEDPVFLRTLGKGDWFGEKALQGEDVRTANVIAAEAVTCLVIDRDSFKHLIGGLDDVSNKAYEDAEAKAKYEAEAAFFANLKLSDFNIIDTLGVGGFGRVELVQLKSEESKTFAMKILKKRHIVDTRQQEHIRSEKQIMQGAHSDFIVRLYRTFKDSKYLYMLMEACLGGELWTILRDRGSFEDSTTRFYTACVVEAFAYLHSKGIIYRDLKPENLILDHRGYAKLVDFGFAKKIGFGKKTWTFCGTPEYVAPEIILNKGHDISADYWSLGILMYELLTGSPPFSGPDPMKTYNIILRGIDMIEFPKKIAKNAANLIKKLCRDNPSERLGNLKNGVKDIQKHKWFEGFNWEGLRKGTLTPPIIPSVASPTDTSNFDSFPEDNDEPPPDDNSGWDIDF

[8] = target: Receptor-type tyrosine-protein kinase FLT3 (Homo sapiens) (UniProt P36888); assay: Inhibition of human FLT3 catalytic domain expressed in baculovirus assessed as substrate phosphorylation using fluorescence-labelled peptides as substrate at 1000 uM after 90 mins by microfluidic peptide phosphorylation assay
[9] = target: Tyrosine-protein kinase Lyn (Homo sapiens) (UniProt P07948); assay: Inhibition of human full length LYN expressed in baculovirus assessed as substrate phosphorylation using fluorescence-labelled peptides as substrate at 1000 uM after 90 mins by microfluidic peptide phosphorylation assay
Sequence of Tyrosine-protein kinase Lyn (Homo sapiens) (P07948 2-512 limits assumed): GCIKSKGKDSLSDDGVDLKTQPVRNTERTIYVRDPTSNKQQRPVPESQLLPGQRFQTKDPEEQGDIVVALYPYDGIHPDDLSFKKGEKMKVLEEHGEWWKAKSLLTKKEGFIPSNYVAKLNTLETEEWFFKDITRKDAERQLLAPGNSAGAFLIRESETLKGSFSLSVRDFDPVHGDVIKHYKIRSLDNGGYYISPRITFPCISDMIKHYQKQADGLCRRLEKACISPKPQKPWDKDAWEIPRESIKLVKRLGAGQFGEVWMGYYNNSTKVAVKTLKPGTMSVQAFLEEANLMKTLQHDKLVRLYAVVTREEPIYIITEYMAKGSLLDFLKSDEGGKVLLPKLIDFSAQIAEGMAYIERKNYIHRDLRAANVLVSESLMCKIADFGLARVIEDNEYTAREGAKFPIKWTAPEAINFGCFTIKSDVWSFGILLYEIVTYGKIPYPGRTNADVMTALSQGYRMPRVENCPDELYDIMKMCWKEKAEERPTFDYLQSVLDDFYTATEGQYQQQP

Sequence of Aurora kinase B (Homo sapiens) (Q96GD4 whole entry, the tested form may be a part): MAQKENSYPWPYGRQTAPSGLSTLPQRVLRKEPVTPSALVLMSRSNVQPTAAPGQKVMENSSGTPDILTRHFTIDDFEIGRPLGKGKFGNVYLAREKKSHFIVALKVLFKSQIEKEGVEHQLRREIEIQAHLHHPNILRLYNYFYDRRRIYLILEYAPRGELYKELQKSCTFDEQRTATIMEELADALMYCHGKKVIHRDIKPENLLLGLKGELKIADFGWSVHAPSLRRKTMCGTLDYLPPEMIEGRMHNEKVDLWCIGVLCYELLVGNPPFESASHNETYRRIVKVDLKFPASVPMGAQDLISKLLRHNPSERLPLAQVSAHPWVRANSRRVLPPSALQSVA
Sequence of Receptor-type tyrosine-protein kinase FLT3 (Homo sapiens) (P36888 whole entry, the tested form may be a part): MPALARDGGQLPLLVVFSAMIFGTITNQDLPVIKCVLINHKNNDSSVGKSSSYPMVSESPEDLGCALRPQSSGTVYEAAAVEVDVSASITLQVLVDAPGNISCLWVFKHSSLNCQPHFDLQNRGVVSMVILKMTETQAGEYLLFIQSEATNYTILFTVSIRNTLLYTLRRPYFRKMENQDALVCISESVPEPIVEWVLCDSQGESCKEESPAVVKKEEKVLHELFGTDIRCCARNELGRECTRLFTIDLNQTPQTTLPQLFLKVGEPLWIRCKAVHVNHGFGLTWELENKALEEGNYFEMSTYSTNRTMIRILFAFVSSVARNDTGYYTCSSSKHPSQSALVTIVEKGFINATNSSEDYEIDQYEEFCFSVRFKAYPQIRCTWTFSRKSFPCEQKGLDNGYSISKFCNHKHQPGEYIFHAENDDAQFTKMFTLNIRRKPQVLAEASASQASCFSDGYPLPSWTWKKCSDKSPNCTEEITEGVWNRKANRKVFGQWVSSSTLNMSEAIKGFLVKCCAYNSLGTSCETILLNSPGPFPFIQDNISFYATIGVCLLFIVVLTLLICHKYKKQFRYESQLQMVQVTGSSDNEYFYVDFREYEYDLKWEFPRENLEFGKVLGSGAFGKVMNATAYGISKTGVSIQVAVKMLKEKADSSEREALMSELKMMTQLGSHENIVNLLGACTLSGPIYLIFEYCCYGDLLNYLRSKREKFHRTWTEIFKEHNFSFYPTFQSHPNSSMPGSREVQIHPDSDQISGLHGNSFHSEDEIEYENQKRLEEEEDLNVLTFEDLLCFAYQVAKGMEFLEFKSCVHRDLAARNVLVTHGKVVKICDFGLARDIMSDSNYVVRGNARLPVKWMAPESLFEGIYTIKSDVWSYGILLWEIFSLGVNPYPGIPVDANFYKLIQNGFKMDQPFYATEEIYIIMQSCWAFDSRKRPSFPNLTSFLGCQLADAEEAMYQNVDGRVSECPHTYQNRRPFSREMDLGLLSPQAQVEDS
Sequence of Fibroblast growth factor receptor 2 (Homo sapiens) (P21802 22-821 limits assumed): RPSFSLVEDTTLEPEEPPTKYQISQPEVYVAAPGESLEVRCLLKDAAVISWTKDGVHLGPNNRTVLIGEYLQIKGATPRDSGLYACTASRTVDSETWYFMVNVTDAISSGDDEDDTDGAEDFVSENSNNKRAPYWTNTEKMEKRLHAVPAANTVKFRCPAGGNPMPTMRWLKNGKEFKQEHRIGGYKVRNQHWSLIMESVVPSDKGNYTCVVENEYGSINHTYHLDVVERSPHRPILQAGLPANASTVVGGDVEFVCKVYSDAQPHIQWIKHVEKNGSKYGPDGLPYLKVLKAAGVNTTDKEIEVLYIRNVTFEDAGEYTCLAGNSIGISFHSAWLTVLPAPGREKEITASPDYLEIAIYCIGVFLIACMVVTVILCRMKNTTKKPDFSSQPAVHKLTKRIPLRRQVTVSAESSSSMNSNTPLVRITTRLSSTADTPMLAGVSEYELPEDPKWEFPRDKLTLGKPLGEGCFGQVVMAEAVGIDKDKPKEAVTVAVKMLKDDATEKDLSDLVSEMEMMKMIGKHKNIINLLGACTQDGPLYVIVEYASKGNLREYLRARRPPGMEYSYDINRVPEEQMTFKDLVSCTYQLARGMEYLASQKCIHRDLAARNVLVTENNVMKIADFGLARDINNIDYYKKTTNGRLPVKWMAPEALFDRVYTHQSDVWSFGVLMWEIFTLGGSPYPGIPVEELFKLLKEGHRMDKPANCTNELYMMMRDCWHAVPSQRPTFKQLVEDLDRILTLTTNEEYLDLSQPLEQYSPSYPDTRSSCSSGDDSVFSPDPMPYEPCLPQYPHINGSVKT
Sequence of Proto-oncogene tyrosine-protein kinase Src (Homo sapiens) (P12931 2-536 limits assumed): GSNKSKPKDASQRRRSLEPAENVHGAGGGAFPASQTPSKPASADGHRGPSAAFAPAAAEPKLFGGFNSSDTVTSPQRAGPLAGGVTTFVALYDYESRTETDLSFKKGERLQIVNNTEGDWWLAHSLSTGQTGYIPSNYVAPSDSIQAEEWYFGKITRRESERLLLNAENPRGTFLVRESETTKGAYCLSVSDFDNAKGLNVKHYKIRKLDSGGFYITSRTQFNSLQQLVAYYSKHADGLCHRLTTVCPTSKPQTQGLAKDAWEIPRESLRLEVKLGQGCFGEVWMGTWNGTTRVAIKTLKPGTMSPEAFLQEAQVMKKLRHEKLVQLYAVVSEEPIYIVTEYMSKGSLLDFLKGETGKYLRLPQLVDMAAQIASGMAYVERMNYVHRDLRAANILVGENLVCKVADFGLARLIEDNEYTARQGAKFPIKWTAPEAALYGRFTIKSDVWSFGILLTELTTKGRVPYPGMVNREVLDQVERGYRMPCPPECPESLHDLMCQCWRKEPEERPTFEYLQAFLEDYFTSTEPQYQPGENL
Sequence of Protein kinase C theta type (Homo sapiens) (Q04759 whole entry, looked up, the tested form may be a part): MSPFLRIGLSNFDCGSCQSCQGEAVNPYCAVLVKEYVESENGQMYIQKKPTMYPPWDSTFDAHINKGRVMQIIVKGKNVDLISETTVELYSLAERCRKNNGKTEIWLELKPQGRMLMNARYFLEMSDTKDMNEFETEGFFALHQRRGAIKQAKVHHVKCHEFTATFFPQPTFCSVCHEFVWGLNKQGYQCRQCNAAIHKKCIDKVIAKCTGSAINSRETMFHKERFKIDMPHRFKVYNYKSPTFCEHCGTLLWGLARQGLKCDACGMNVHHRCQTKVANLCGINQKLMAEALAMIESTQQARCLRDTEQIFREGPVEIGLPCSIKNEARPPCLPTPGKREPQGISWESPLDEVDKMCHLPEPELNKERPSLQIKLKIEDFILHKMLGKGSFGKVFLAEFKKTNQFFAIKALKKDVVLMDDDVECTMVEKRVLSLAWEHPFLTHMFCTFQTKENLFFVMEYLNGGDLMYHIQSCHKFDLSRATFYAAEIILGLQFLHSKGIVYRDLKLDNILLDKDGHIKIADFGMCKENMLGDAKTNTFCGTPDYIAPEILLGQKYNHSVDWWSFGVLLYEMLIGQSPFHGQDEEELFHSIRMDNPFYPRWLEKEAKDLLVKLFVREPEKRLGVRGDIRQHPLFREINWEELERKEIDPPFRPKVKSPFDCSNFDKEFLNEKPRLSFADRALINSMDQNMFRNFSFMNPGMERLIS

**Q.** Which inhibition [1] does the source give for Clc1ccc(C2(c3ccc(-c4ncnc5[nH]cnc45)cc3)CCNCC2)cc1 here?
**A.** Its inhibition is 5%.

**Q.** For c1nc(N2CCOCC2)c2nc[nH]c2n1, which inhibition [2] is on record?
**A.** Its inhibition is 87%.

**Q.** How did the inhibition [3] turn out when NC1CCN(c2ncnc3[nH]ccc23)CC1 was run?
**A.** The inhibition was 13%.

**Q.** What does the source list for NC1(Cc2ccc(Cl)cc2)CCN(c2ncnc3[nH]ccc23)CC1?
**A.** inhibition [4]: 0%; inhibition [5]: 0%

**Q.** NCC1CCN(c2ncnc3[nH]ccc23)CC1 was tested. Which inhibition [6] did it give?
**A.** Its inhibition is 29.5%.

**Q.** With c1cnc2[nH]ccc2c1 as the compound, how does the inhibition [7] read?
**A.** Its inhibition is 90.5%.

**Q.** What about the inhibition [8] of the same compound?
**A.** Its inhibition is 75.5%.

**Q.** And the inhibition [9]?
**A.** Its inhibition is 31.5%.
